{"source": "patent US20240358705A1", "about": "“COMPOSITIONS AND METHODS FOR TREATMENT OF CANCER” (Board of Supervisors of Louisiana State University and …, priority 2021, published 2024)", "key": {"CD3 T cells": {"test_system": "CD3 T cells", "details": "activated CD3 T cells, 3 μM or 10 μM, 72 hours", "experimental": "(§1) Lymph nodes and spleen were isolated from wild-type C57BL/6N mice. Tissue was mechanically dissociated with the back of a syringe plunger and passed through a 70 M filter. […] Treated cells were incubated at 37° C., 5% CO2 for the designed study duration.\nProtein concentration was quantified using a BCA protein assay kit (Thermo #A53225). […] of protein diluted with 1×LDS sample buffer (Life Technologies #B0008) and 1×sample reducing agent (Life Technologies #B0009), were denatured at 95° C. for 5 minutes. Denatured T cell protein was resolved using a 10% Bolt Bis-Tris plus protein gel (Thermo #NW00102BOX) and denatured BM-MDSC protein was resolved using an 8% Bolt Bis-Tris plus protein gel (Thermo #NW00082BOX). Gels were transferred to a PVDF membrane (Invitrogen #IB401002) using a seven-minute P3 program on an Invitrogen iBlot dry transfer system. Membranes were then blocked for one hour using 5% nonfat dry milk in TBS-T, washed three times with TBS-T and probed with primary antibody diluted with 5% BSA in TBS-T overnight at 4° C. with gentle rocking. Primary antibody was removed, and membranes were washed three times with TBS-T followed by secondary antibody diluted in TBS-T at room temperature for one hour with gentle rocking. […] Secondary antibodies used were anti-mouse-HRP (Kindle Biosciences #R1005) and anti-rabbit-HRP (Kindle Biosciences #R1006). […]"}, "CD4 T cells": {"test_system": "CD4 T cells", "test": "Annexin/PI apoptosis staining, CD4", "assay_type": "cell-based, mouse", "details": "3 μM or 10 μM, 72 hours, vs DMSO", "experimental": "as §1\nTreated CD3 T cells were prepared following the in vitro T cell activation method and incubated for 72 hours at 37° C., 5% CO2."}, "BM-MDSCs [1]": {"test_system": "BM-MDSCs", "details": "differentiating BM-MDSCs, 3 μM or 10 μM, 72 hours", "experimental": "(§2) Bone marrow cells were isolated by flushing the tibia and femurs of wild-type C57BL/6N mice. […] To generate BM-MDSCs, 3×10^6 cells were plated in a 6-well dish and incubated at 37° C., 5% CO2 for 96 hours. For treatment, drugs were administered at either 3 μM or 10 μM concentrations and added to the BM-MDSC cell culture well 24 hours after plating.\nProtein concentration was quantified using a BCA protein assay kit (Thermo #A53225). […] of protein diluted with 1×LDS sample buffer (Life Technologies #B0008) and 1×sample reducing agent (Life Technologies #B0009), were denatured at 95° C. for 5 minutes. Denatured T cell protein was resolved using a 10% Bolt Bis-Tris plus protein gel (Thermo #NW00102BOX) and denatured BM-MDSC protein was resolved using an 8% Bolt Bis-Tris plus protein gel (Thermo #NW00082BOX). Gels were transferred to a PVDF membrane (Invitrogen #IB401002) using a seven-minute P3 program on an Invitrogen iBlot dry transfer system. Membranes were then blocked for one hour using 5% nonfat dry milk in TBS-T, washed three times with TBS-T and probed with primary antibody diluted with 5% BSA in TBS-T overnight at 4° C. with gentle rocking. Primary antibody was removed, and membranes were washed three times with TBS-T followed by secondary antibody diluted in TBS-T at room temperature for one hour with gentle rocking. […]"}, "BM-MDSCs [2]": {"test_system": "BM-MDSCs", "test": "Arginase-I and iNOS immunoblot in BM-MDSCs", "assay_type": "cell-based, mouse", "details": "for arginase-I levels, reduction compared to DMSO / iNOS production, reduction compared to DMSO: 72 hours", "experimental": "as §2\nProtein concentration was quantified using a BCA protein assay kit (Thermo #A53225). […] of protein diluted with 1×LDS sample buffer (Life Technologies #B0008) and 1×sample reducing agent (Life Technologies #B0009), were denatured at 95° C. for 5 minutes. Denatured T cell protein was resolved using a 10% Bolt Bis-Tris plus protein gel (Thermo #NW00102BOX) and denatured BM-MDSC protein was resolved using an 8% Bolt Bis-Tris plus protein gel (Thermo #NW00082BOX). Gels were transferred to a PVDF membrane (Invitrogen #IB401002) using a seven-minute P3 program on an Invitrogen iBlot dry transfer system. Membranes were then blocked for one hour using 5% nonfat dry milk in TBS-T, washed three times with TBS-T and probed with primary antibody diluted with 5% BSA in TBS-T overnight at 4° C. with gentle rocking. Primary antibody was removed, and membranes were washed three times with TBS-T followed by secondary antibody diluted in TBS-T at room temperature for one hour with gentle rocking. […] Secondary antibodies used were anti-mouse-HRP (Kindle Biosciences #R1005) and anti-rabbit-HRP (Kindle Biosciences #R1006). Analysis was conducted using ImageJ (NIH Bethesda, MD) and normalized to the housekeeping protein β-actin."}, "CD8 T cells": {"test_system": "CD8 T cells", "test": "2-NBDG glucose analog uptake assay", "assay_type": "cell-based, mouse", "details": "72 hours", "experimental": "as §1\nTreated CD3 T cells were prepared following the in vitro T cell activation method and incubated for 72 hours at 37° C., 5% CO2. […] (Thermo #N13195) Cells were then incubated for one hour at 37° C., 5% CO2. After incubation, T cells were washed, pelleted and stained with anti-CD4, anti-CD8, anti-CD3 following the immune profiling by flow cytometry method. Percent uptake was calculated using mean fluorescent intensity (MFI)."}, "B16": {"test_system": "B16", "test": "In vivo adoptive cellular transfer, pmel-I, B16 tumor", "set-up": "species or system mouse", "details": "T cells pre-treated with 10 μM; B16 tumor bearing mice; vs sham and DMSO pre-treated", "experimental": "C57BL/6N mice were injected with 3×10^5 B16-OVA or B16 subcutaneously in the right flank. Five days after injection, mice were administered 200 μg cyclophosphamide monohydrate (Sigma #C73971G) dissolved in PBS by intraperitoneal injection to induce minor lymphodepletion. 48 hours after lymphodepletion, mice were intravenously adoptively transferred 2.5×10^6 CD8 OT-I or CD8 […] pre-treated ex vivo following the in vitro T cell activation method. Tumor growth rates were determined by tumor volume measurement beginning on day four and continuing three times per week for the study duration. Tumor volumes were determined by the ellipsoid formula: [(Length×Width^2)/2]. At the end of study, tumors were either fixed in 10% formalin or dissociated into a single-cell suspension for flow cytometry. Single-cell suspension was performed by chopping tumor tissue with scissors followed by a 30-minute incubation at 37° C. with 100 µg/ml DNase I (Roche #10104159001) and 0.5 U/ml Liberase (Roche #05401127001) in PBS. Solution was then diluted with cRPMI-1640 and passed through a 70 μm cell strainer, pelleted and resuspended in ACK lysis buffer to remove erythrocytes. Cells were then counted, filtered through a 70 μm cell strainer, and 10×10^6 cells were aliquoted and stained following the immune profiling by flow cytometry method."}, "[3]": {"test_system": "adoptively transferred CD8 OT-I T cells", "test": "Immune profiling and proliferation of in vivo vaccinated CD8 T cells", "set-up": "species or system mouse", "details": "for OT-I CD8 T cell proliferation, lymph node: vehicle MC 49.37%; for effector/memory CD8 OT-I T cells, splenic compartment: vehicle MC 12.53%; for adoptively transferred cells expressing PD-1, lymph node: vehicle MC 12.58%; for effector/memory CD8 OT-I T cells, lymph node: vehicle MC 23.11%; for OT-I CD8 T cell proliferation, splenic compartment: vehicle MC 30.68%; for naïve CD8 OT-I T cells, splenic compartment: vehicle MC 46.68%; for naïve CD8 OT-I T cells, lymph node: vehicle MC […]", "experimental": "Five hours later, mice were vaccinated by subcutaneous injection with […] (SEQ ID NO: 1) in IFA. 16 hours after vaccination, mice were administered 30 mg/kg or 90 mg/kg GLPG1205 suspended in 0.5% methylcellulose (Sigma #M0430100G) with 0.5% Tween-80 (Sigma #P4780100ML) (MC) orally once daily for three days. 96 hours post-vaccination, lymph node and spleen tissue were isolated for analysis. Single-cell suspensions were treated with ACK lysis to remove red blood cells, and then stained following the immune profiling by flow cytometry method. Treatment effectiveness was determined by the percent proliferation and PD-1 expression of adoptively transferred cells."}, "B16-OVA": {"test_system": "B16-OVA", "test": "In vivo therapeutic vaccination and tumor analysis", "set-up": "species or system mouse", "details": "30 mg/kg orally, with SIINFEKL in IFA vaccination and boosts", "experimental": "C57BL/6N mice were injected with 3×10^5 B16-OVA subcutaneously in the right flank. Five days after injection, mice were administered 200 μg cyclophosphamide dissolved in PBS by intraperitoneal injection to induce minor lymphodepletion. 48 hours after lymphodepletion, mice were intravenously adoptively transferred 2.5×10^6 labeled CD8 OT-I T cells. […]. Tumor growth rates were determined by tumor volume measurement beginning on day four and continuing three times per week for the study duration. Tumor volumes were determined by the ellipsoid formula: [(Length×Width^2)/2]."}, "[4]": {"test_system": "cytochrome family of enzymes", "details": "cited from earlier work"}, "[5]": {"details": "three separate models of NASH; cited from earlier work"}}}
{"smiles": "O=c1nc(OC[C@@H]2COCCO2)cc2n1CCc1cc(C#CC3CC3)ccc1-2", "note": "[GLPG1205, 9-Cyclopropylethynyl-2-((S)-1-[1,4]dioxan-2-ylmethoxy)-6,7-dihydropyrimido[6,1-a]isoquinolin-4-one]", "values": [{"measurement": "GPR84 expression", "setting": "CD3 T cells", "value": "did not significantly affect GPR84 expression"}, {"measurement": "CD4 apoptosis (Annexin/PI)", "setting": "CD4 T cells", "value": "did not elicit any significant changes"}, {"measurement": "GPR84 expression", "setting": "BM-MDSCs [1]", "value": "only neared statistical significance"}, {"measurement": "arginase-I levels, reduction compared to DMSO", "setting": "BM-MDSCs [2]; 3 μM", "value": 1.79, "unit": "times"}, {"measurement": "iNOS production, reduction compared to DMSO", "setting": "BM-MDSCs [2]; 3 μM", "value": 1.5, "unit": "times"}, {"measurement": "arginase-I levels, reduction compared to DMSO", "setting": "BM-MDSCs [2]; 10 μM", "value": 2.75, "unit": "times"}, {"measurement": "iNOS production, reduction compared to DMSO", "setting": "BM-MDSCs [2]; 10 μM", "value": 1.35, "unit": "times"}, {"measurement": "expression of Arginase 1 and iNOS (Western blot)", "setting": "BM-MDSCs [2]; bone marrow derived murine MDSC, descending concentrations (FIG. 4)", "value": "decreases the expression of Arginase 1 protein"}, {"measurement": "2-NBDG uptake (MFI), Log2 fold change compared to DMSO control", "setting": "CD8 T cells; 3 μM", "value": 0.19, "unit": "Log2 fold change"}, {"measurement": "2-NBDG uptake, increase vs DMSO", "setting": "CD8 T cells; 3 μM", "value": 13.92, "unit": "%"}, {"measurement": "2-NBDG uptake (MFI), Log2 fold change compared to DMSO control", "setting": "CD8 T cells; 10 μM", "value": 0.24, "unit": "Log2 fold change"}, {"measurement": "2-NBDG uptake, increase vs DMSO", "setting": "CD8 T cells; 10 μM", "value": 17.74, "unit": "%"}, {"measurement": "tumor growth rate after adoptive transfer of pre-treated pmel-I CD8 T cells", "setting": "B16", "value": "significant reduction in the tumor growth rate"}, {"measurement": "PD-1 expression, splenic compartment, compared to MC vehicle", "setting": "[3]; 30 mg/kg or 90 mg/kg", "value": "no significant increase"}, {"measurement": "OT-I CD8 T cell proliferation, lymph node", "setting": "[3]; 30 mg/kg orally once daily for 3 days", "value": 73.84, "unit": "%"}, {"measurement": "effector/memory CD8 OT-I T cells, splenic compartment", "setting": "[3]; 30 mg/kg", "value": 30.12, "unit": "%"}, {"measurement": "adoptively transferred cells expressing PD-1, lymph node", "setting": "[3]; 30 mg/kg", "value": 16.05, "unit": "%"}, {"measurement": "effector/memory CD8 OT-I T cells, lymph node", "setting": "[3]; 30 mg/kg", "value": 47.38, "unit": "%"}, {"measurement": "OT-I CD8 T cell proliferation, splenic compartment", "setting": "[3]; 30 mg/kg", "value": 50.99, "unit": "%"}, {"measurement": "naïve CD8 OT-I T cells, splenic compartment", "setting": "[3]; 30 mg/kg", "value": 26.16, "unit": "%"}, {"measurement": "naïve CD8 OT-I T cells, lymph node", "setting": "[3]; 30 mg/kg", "value": 12.87, "unit": "%"}, {"measurement": "OT-I CD8 T cell proliferation, lymph node", "setting": "[3]; 90 mg/kg orally once daily for 3 days", "value": 74.56, "unit": "%"}, {"measurement": "adoptively transferred cells expressing PD-1, lymph node", "setting": "[3]; 90 mg/kg, non-significant increase", "value": 15.75, "unit": "%"}, {"measurement": "effector/memory CD8 OT-I T cells, splenic compartment", "setting": "[3]; 90 mg/kg", "value": 37.72, "unit": "%"}, {"measurement": "effector/memory CD8 OT-I T cells, lymph node", "setting": "[3]; 90 mg/kg", "value": 53.97, "unit": "%"}, {"measurement": "OT-I CD8 T cell proliferation, splenic compartment", "setting": "[3]; 90 mg/kg", "value": 59.35, "unit": "%"}, {"measurement": "naïve CD8 OT-I T cells, splenic compartment", "setting": "[3]; 90 mg/kg", "value": 16.37, "unit": "%"}, {"measurement": "naïve CD8 OT-I T cells, lymph node", "setting": "[3]; 90 mg/kg", "value": 9.48, "unit": "%"}, {"measurement": "anti-tumor response (tumor growth rates) compared to the MC control group", "setting": "B16-OVA", "value": "significantly stronger anti-tumor response"}, {"measurement": "interaction with the cytochrome family of enzymes", "setting": "[4]", "value": "strong safety profiles"}, {"measurement": "macrophage accumulation", "setting": "[5]", "value": "significant decrease in macrophage accumulation"}]}
